Calls of active or inactive are those of the source.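 The calls were made as follows: active = activation curve crossing 200% at or below the highest valid dose tested for that sample; inconclusive = flat curve with activation between 30 and 70%, or poor fit; inactive = the rest, including signal falling instead of rising.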 Where only a bound is given, the exact number is not on record here.

Sequence of Leucyl-cystinyl aminopeptidase (Mus musculus) (Q8C129 whole entry, looked up): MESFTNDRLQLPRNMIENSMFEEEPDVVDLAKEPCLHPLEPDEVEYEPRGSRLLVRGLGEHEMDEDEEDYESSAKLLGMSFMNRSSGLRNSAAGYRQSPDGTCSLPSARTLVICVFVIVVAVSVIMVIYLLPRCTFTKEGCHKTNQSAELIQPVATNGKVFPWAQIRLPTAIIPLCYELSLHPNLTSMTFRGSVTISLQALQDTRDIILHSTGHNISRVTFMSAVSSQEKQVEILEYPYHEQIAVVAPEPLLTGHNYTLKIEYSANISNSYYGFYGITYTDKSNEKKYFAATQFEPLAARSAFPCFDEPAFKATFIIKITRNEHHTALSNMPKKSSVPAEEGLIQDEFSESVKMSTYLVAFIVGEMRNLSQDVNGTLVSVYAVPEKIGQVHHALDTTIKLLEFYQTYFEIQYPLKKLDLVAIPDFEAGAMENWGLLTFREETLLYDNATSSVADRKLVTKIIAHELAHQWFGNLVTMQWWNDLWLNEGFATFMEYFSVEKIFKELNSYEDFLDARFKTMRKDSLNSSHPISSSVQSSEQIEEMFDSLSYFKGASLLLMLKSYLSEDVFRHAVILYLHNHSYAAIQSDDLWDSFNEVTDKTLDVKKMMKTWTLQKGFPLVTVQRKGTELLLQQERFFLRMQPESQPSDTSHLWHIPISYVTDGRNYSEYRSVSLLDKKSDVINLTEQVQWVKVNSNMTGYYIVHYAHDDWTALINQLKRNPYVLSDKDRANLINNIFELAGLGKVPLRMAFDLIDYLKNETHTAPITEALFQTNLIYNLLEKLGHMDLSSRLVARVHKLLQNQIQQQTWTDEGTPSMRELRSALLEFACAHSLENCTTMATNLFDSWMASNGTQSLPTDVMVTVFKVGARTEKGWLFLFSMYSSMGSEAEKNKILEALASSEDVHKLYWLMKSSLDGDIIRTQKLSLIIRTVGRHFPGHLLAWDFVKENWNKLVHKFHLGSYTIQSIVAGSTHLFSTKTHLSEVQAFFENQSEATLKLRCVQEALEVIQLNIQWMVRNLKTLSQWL

The first assay addresses Leucyl-cystinyl aminopeptidase (Mus musculus) (UniProt Q8C129). In words: activation of mouse IRAP aminopeptidase activity – biochemical, Leu-AMC fluorescence, cherry-picked samples, selectivity assay for ERAP1 modulator project, dose response (AID 743339). Particulars: purified IRAP, Leu-AMC cleavage fluorescence, 1 h.
Consider `CCc1cc(=O)oc2c(CN3CCN(C)CC3)c(O)ccc12`, for which the AC200 is 1540 nM. For the molecule `COCC(=O)N1[C@@H]2c3ccc(/C=C/c4ccccc4)c(=O)n3C[C@H]1[C@H](CO)[C@H]2C(=O)N1CCOCC1`, the AC200 is 684 nM. Still for that read-out and setting: with `C/C(=N\NC(=O)CC#N)c1cc2ccc(O)cc2oc1=O` the figure was 1080 nM; with `CC(=O)N1[C@@H]2Cn3c(ccc(/C=C/c4ccccc4)c3=O)[C@H]1[C@@H](C(=O)NCC1CC1)[C@@H]2CO`, 1290 nM. For the molecule `CC1CN(Cc2cc(=O)oc3cc(O)c(Cl)cc23)CC(C)O1` (stereo not given), the AC200 was 1350 nM.

`CCc1c(C)c2cc(Cl)c(O)c(CN(CC)CC)c2oc1=O`: the AC200 is 546 nM.

For `O=C(C[C@H]1CC[C@@H]2[C@H](COC[C@@H](O)CN2C(=O)Nc2cccc(Cl)c2)O1)N1CCCCC1`, the AC200 is > 11000 nM (inactive). On the same count and under the same terms, with `Cc1cc(=O)oc2c(CN3CCCC3)c(O)c(Cl)cc12` the figure was 673 nM; with `Cc1c(O)ccc2c(CN3CCN(Cc4ccccc4)CC3)cc(=O)oc12`, > 2600 nM (inactive); with `COCCCn1c(C(=O)N2CCOCC2)cc2c(=O)n3ccccc3nc21`, > 2600 nM (inactive).

Staying with this assay, now noted: purified IRAP, Leu-AMC cleavage fluorescence, 1 h; at 10 µM (top of the series).
`C[C@@H]1CCCCO[C@@H](CN(C)C)[C@H](C)CN([C@@H](C)CO)C(=O)c2cc(NC(=O)Nc3ccc(C(F)(F)F)cc3)ccc2O1`: the activation was -1.06% (inactive).

The same assay, now with this note: purified IRAP, Leu-AMC cleavage fluorescence, 1 h; at 11 µM (top of the series).
In the case of `COc1ccc(CN(C)C[C@@H]2OCCCC[C@@H](C)Oc3ccc(NS(=O)(=O)c4cccs4)cc3C(=O)N([C@H](C)CO)C[C@@H]2C)cc1`, the activation was 3.66% (inactive). On the same count and under the same terms, with `CCCN(C)C[C@@H]1OCCCC[C@H](C)Oc2ccc(NC(=O)Nc3ccc(F)cc3)cc2C(=O)N([C@H](C)CO)C[C@@H]1C` the figure was -36.2% (inactive); with `Cc1noc(C)c1NC(=O)N(C)C[C@@H]1Oc2c(NC(=O)Nc3ccccc3)cccc2C(=O)N([C@H](C)CO)C[C@@H]1C`, 12.9% (inactive); with `COc1cccc(S(=O)(=O)N(C)C[C@@H]2Oc3ncccc3C(=O)N([C@H](C)CO)C[C@@H]2C)c1`, 79.6% (inactive). On the same count and under the same terms, with `C[C@@H]1CCCCO[C@@H](CN(C)Cc2ccc(C(=O)O)cc2)[C@@H](C)CN([C@H](C)CO)C(=O)c2cc(NC(=O)Nc3cccc4ccccc34)ccc2O1` the figure was -5.32% (inactive); with `NC(=NCCc1c[nH]c2ccccc12)NS(=O)(=O)c1cc(F)ccc1F`, 20.9% (inactive); with `C[C@H](CO)N1C[C@H](C)[C@@H](CN(C)CC2CC2)Oc2c(NC(=O)Nc3ccc(C(F)(F)F)cc3)cccc2C1=O`, -14.9% (inactive). Same read-out and setting: with `CC(=O)N1CCN(C(=O)C2(NC(=O)Nc3ccc(C)cc3)CCCCC2)CC1` the figure was 10% (inactive); with `COc1ccc(CN(C)C[C@@H]2OCCCC[C@@H](C)Oc3ccc(NS(=O)(=O)c4c(C)noc4C)cc3C(=O)N([C@@H](C)CO)C[C@@H]2C)cc1`, -18.2% (inactive).
